Test results reported in US20250320213A1, “Nitrogen-Containing Heterocyclic Compounds” (Pfizer Inc., priority 2024, published 2025).

Assays:
STAT6 = molecular target: T1, STAT6 (Homo sapiens, UniProt P42226); assay: STAT6 Reporter Luciferase Assay (IL-13 stimulated HaCaT keratinocyte NanoLuc reporter cells); type: cell-based; details: IL-13 stimulated HaCaT STAT6 NanoLuc reporter cells; read-out: Reporter EC50
T1 construct: stably transfected HaCaT keratinocyte cell line, which expresses NanoLuc luciferase reporter gene under the transcriptional control of the STAT6 responsive promoter; endogenous in cells; host or cells: HaCaT keratinocyte reporter cell line (stably transfected with a NanoLuc reporter)
T1 sequence (P42226 1-847): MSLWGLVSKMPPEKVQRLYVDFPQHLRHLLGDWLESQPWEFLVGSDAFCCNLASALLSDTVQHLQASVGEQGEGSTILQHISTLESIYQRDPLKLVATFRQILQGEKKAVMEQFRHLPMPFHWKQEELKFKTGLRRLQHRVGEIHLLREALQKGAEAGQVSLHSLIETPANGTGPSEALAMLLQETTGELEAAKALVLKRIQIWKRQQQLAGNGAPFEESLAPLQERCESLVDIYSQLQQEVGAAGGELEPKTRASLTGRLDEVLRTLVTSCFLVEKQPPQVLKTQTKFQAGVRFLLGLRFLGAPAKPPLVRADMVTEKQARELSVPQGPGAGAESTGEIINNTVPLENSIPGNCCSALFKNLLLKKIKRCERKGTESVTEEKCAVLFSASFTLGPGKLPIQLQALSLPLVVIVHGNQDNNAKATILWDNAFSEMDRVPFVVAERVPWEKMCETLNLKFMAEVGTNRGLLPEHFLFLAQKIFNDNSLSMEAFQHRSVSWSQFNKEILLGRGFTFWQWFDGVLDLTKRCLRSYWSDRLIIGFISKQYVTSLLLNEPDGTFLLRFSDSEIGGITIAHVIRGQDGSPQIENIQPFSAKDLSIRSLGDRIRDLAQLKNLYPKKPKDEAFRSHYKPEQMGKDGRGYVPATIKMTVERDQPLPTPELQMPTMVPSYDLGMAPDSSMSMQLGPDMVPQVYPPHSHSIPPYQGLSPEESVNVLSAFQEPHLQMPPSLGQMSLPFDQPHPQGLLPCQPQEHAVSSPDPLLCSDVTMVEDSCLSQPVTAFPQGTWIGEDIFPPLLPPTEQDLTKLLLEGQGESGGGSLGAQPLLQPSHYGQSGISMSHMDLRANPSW
In short: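 HaCaT IL-13Ra2-promoter NanoLuc reporter; cpd 2 h 37 °C in DMEM/2% HI FBS; IL-13 0.12 nM final, 4 h; Nano-Glo luminescence.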

[1] = tested on: CCL17 secretion in peripheral human whole blood; assay: Human Whole Blood (HWB) CCL17 TR-FRET Assay (IL-13 stimulated CCL17 secretion); type: cell-based; details: human whole blood, IL-13 stimulated
In short: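 Compounds are titrated (11 points, 3-fold, duplicate) into fresh heparinized human whole blood and held 2 h at 37 °C before IL-13 challenge (10 ng/mL final). After 48 h at 37 °C, serum CCL17 is measured by TR-FRET sandwich assay and IC50 values are calculated.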

Work on `CC(C)n1nc(C(=O)NCc2ccc(NC(=O)N3CC(C)(O)C3)cc2)c2c1CCN(c1ccc(C(=O)N(C)C)cn1)C2` [Example 185, 5-(5-(dimethylcarbamoyl)pyridin-2-yl)-N-(4-(3-hydroxy-3-methylazetidine-1-carboxamido)benzyl)-1-isopropyl-4,5,6,7-tetrahydro-1H-pyrazolo[4,3-c]pyridine-3-carboxamide] yielded an EC50 (STAT6) of 0.024 µM and an IC50 ([1]; Homo sapiens, 48 h) of 0.083 µM.

`CC(C)n1nc(C(=O)NCc2ccc(NC(=O)N(C)[C@H]3CCOC3)cc2)c2c1CCN(c1ccc(C(=O)N(C)C)cn1)C2` [Example 187, (S)-5-(5-(dimethylcarbamoyl)pyridin-2-yl)-1-isopropyl-N-(4-(3-methyl-3-(tetrahydrofuran-3-yl)ureido)benzyl)-4,5,6,7-tetrahydro-1H-pyrazolo[4,3-c]pyridine-3-carboxamide] gave an EC50 (STAT6) of 0.015 µM and an IC50 ([1]; Homo sapiens, 48 h) of 0.041 µM.

Work on `COC1CN(C(=O)Nc2ccc(CNC(=O)c3nn(C(C)C)c4c3CN(c3ccc(C(=O)N(C)C)cn3)CC4)cc2)C1` [Example 188, 5-(5-(dimethylcarbamoyl)pyridin-2-yl)-1-isopropyl-N-(4-(3-methoxyazetidine-1-carboxamido)benzyl)-4,5,6,7-tetrahydro-1H-pyrazolo[4,3-c]pyridine-3-carboxamide] yielded an EC50 (STAT6) of 0.011 µM and an IC50 ([1]; Homo sapiens, 48 h) of 0.069 µM.

`CC(C)n1nc(C(=O)NCc2ccc(NC(=O)N(C)CC(F)F)cc2)c2c1CCN(c1ccc(C(=O)N(C)C)cn1)C2` [Example 189, N-(4-(3-(2,2-difluoroethyl)-3-methylureido)benzyl)-5-(5-(dimethylcarbamoyl)pyridin-2-yl)-1-isopropyl-4,5,6,7-tetrahydro-1H-pyrazolo[4,3-c]pyridine-3-carboxamide] was tested, and the EC50 (STAT6) was 0.01 µM and the IC50 ([1]; Homo sapiens, 48 h) was 0.095 µM.

In the case of `COc1nc(N2CCc3c(c(C(=O)NCc4ccc(NC(=O)N(C)C)cc4)nn3C(C)C)C2)ccc1[C@@]1(C)CCCNC1=O` [Example 192, (R)-N-(4-(3,3-dimethylureido)benzyl)-1-isopropyl-5-(6-methoxy-5-(3-methyl-2-oxopiperidin-3-yl)pyridin-2-yl)-4,5,6,7-tetrahydro-1H-pyrazolo[4,3-c]pyridine-3-carboxamide], the EC50 (STAT6) is reported as 1.67 µM and the IC50 ([1]; Homo sapiens, 48 h) is reported as 6.45 µM.

For `CCOC(=O)Nc1ccc(CNC(=O)c2nn(C(C)C)c3c2CN(c2ccc(C(=O)N(C)C)cn2)CC3)cc1` [Example 236, Ethyl (4-((5-(5-(dimethylcarbamoyl)pyridin-2-yl)-1-isopropyl-4,5,6,7-tetrahydro-1H-pyrazolo[4,3-c]pyridine-3-carboxamido)methyl)phenyl)carbamate], the EC50 (STAT6) was 0.017 µM and the IC50 ([1]; 48 hours) was 0.254 µM.

In the case of `CCn1nc(C(=O)NCc2ccc(NC(=O)N(C)C)cc2)c2c1C(C)(C)CN(c1ccc(C(=O)N(C)C)cn1)C2` [Example 238, 5-(5-(dimethylcarbamoyl)pyridin-2-yl)-N-(4-(3,3-dimethylureido)benzyl)-1-ethyl-7,7-dimethyl-4,5,6,7-tetrahydro-1H-pyrazolo[4,3-c]pyridine-3-carboxamide], the EC50 (STAT6) is reported as 0.002 µM and the IC50 ([1]; Homo sapiens, 48 h) is reported as 0.009 µM.

With `CC(C)n1nc(C(=O)NCc2ccc(NC(=O)N(C)C)cc2)c2c1C(C)(C)CN(c1ccc(C(=O)N(C)C)cn1)C2` [Example 247, 5-(5-(dimethylcarbamoyl)pyridin-2-yl)-N-(4-(3,3-dimethylureido)benzyl)-1-isopropyl-7,7-dimethyl-4,5,6,7-tetrahydro-1H-pyrazolo[4,3-c]pyridine-3-carboxamide] the EC50 (STAT6) was 0.001 µM and the IC50 ([1]; Homo sapiens, 48 h) was 0.009 µM.

`CN(C)C(=O)Nc1ccc(CNC(=O)c2nn(CC3CC(F)(F)C3)c3c2CN(c2ccc(C(=O)N(C)C)cn2)CC3)cc1` [Example 248, 1-((3,3-difluorocyclobutyl)methyl)-5-(5-(dimethylcarbamoyl)pyridin-2-yl)-N-(4-(3,3-dimethylureido)benzyl)-4,5,6,7-tetrahydro-1H-pyrazolo[4,3-c]pyridine-3-carboxamide] was tested, and the EC50 (STAT6) was 0.035 µM and the IC50 ([1]; Homo sapiens, 48 h) was 0.131 µM.

`CN(C)C(=O)Nc1ccc(CN2CCCn3nc4c(c3C2=O)CN(c2ccc(C(=O)N(C)C)cn2)CC4)cc1` [Example 252, 6-(10-(4-(3,3-Dimethylureido)benzyl)-11-oxo-1,3,4,7,8,9,10,11-octahydro-2H-pyrido[4′,3′:3,4]pyrazolo[1,5-a][1,4]diazepin-2-yl)-N,N-dimethylnicotinamide] was tested, and the EC50 (STAT6) was 0.385 µM and the IC50 ([1]; Homo sapiens, 48 h) was 1.13 µM.

In the case of `CN(C)C(=O)Nc1ccc(CNC(=O)c2nn(CC(C)(C)C)c3c2CN(c2ccc(C(=O)N(C)C)cn2)CC3)cc1` [Example 253, 5-(5-(dimethylcarbamoyl)pyridin-2-yl)-N-(4-(3,3-dimethylureido)benzyl)-1-neopentyl-4,5,6,7-tetrahydro-1H-pyrazolo[4,3-c]pyridine-3-carboxamide], the EC50 (STAT6) is reported as 0.007 µM and the IC50 ([1]; Homo sapiens, 48 h) is reported as 0.126 µM.

Compound `CN(C)C(=O)Nc1ccc(CNC(=O)c2nn(C3CCCOC3)c3c2CN(c2ccc(C(=O)N(C)C)cn2)CC3)cc1` (centres unmarked) [Example 254, 5-(5-(dimethylcarbamoyl)pyridin-2-yl)-N-(4-(3,3-dimethylureido)benzyl)-1-(tetrahydro-2H-pyran-3-yl)-4,5,6,7-tetrahydro-1H-pyrazolo[4,3-c]pyridine-3-carboxamide] has an EC50 (STAT6) of 0.022 µM and an IC50 ([1]; Homo sapiens, 48 h) of 0.18 µM.

For `CN(C)C(=O)Nc1ccc(CN2CCn3nc4c(c3C2=O)CN(c2ccc(C(=O)N(C)C)cn2)CC4)cc1` [Example 256, 6-(9-(4-(3,3-dimethylureido)benzyl)-10-oxo-3,4,7,8,9,10-hexahydropyrido[4′,3′:3,4]pyrazolo[1,5-a]pyrazin-2(1H)-yl)-N,N-dimethylnicotinamide], the EC50 (STAT6) was 0.028 µM and the IC50 ([1]; Homo sapiens, 48 h) was 0.19 µM.

Compound `CN(C)C(=O)Nc1ccc(CNC(=O)c2nn(CC3CCC3)c3c2CN(c2ccc(C(=O)N(C)C)cn2)CC3)cc1` [Example 257, 1-(cyclobutylmethyl)-5-(5-(dimethylcarbamoyl)pyridin-2-yl)-N-(4-(3,3-dimethylureido)benzyl)-4,5,6,7-tetrahydro-1H-pyrazolo[4,3-c]pyridine-3-carboxamide] has an EC50 (STAT6) of 0.015 µM and an IC50 ([1]; Homo sapiens, 48 h) of 0.272 µM.

In the case of `C[C@H]1Cc2c(c(C(=O)NCc3ccc(NC(=O)N(C)C)cc3)nn2C)CN1c1ccc(-c2nccn2C)cn1` [Example 259, (S)-N-(4-(3,3-dimethylureido)benzyl)-1,6-dimethyl-5-(5-(1-methyl-1H-imidazol-2-yl)pyridin-2-yl)-4,5,6,7-tetrahydro-1H-pyrazolo[4,3-c]pyridine-3-carboxamide], the EC50 (STAT6) is reported as 0.002 µM and the IC50 ([1]; Homo sapiens, 48 h) is reported as 0.03 µM.

`CCC(C)(C)n1nc(C(=O)NCc2ccc(NC(=O)N(C)C)cc2)c2c1CCN(c1ccc(C(=O)N(C)C)cn1)C2` [Example 261, 5-(5-(dimethylcarbamoyl)pyridin-2-yl)-N-(4-(3,3-dimethylureido)benzyl)-1-(tert-pentyl)-4,5,6,7-tetrahydro-1H-pyrazolo[4,3-c]pyridine-3-carboxamide] was tested, and the EC50 (STAT6) was 3.57 µM and the IC50 ([1]; Homo sapiens, 48 h) was greater than 30 µM.

Compound `CC(C1CCC1)n1nc(C(=O)NCc2ccc(NC(=O)N(C)C)cc2)c2c1CCN(c1ccc(C(=O)N(C)C)cn1)C2` (centres unmarked) [Example 263, 1-(1-cyclobutylethyl)-5-(5-(dimethylcarbamoyl)pyridin-2-yl)-N-(4-(3,3-dimethylureido)benzyl)-4,5,6,7-tetrahydro-1H-pyrazolo[4,3-c]pyridine-3-carboxamide] has an EC50 (STAT6) of 0.009 µM and an IC50 ([1]; Homo sapiens, 48 h) of 0.13 µM.

`CN(C)C(=O)Nc1ccc(CNC(=O)c2nn(C3CCCC3)c3c2CN(c2ccc(C(=O)N(C)C)cn2)CC3)cc1` [Example 264, 1-cyclopentyl-5-(5-(dimethylcarbamoyl)pyridin-2-yl)-N-(4-(3,3-dimethylureido)benzyl)-4,5,6,7-tetrahydro-1H-pyrazolo[4,3-c]pyridine-3-carboxamide] showed an EC50 (STAT6) of 0.007 µM and an IC50 ([1]; Homo sapiens, 48 h) of 0.131 µM.

With `CC(C)n1nc(C(=O)NCc2ccc(NC(=O)N(C)C)cc2)c2c1C1(CC1)CN(c1ccc(C(=O)N(C)C)cn1)C2` [Example 266, 5′-(5-(dimethylcarbamoyl)pyridin-2-yl)-N-(4-(3,3-dimethylureido)benzyl)-1′-isopropyl-1′,4′,5′,6′-tetrahydrospiro[cyclopropane-1,7′-pyrazolo[4,3-c]pyridine]-3′-carboxamide] the EC50 (STAT6) was 0.003 µM and the IC50 ([1]; Homo sapiens, 48 h) was 0.045 µM.
